Reference: the NIST ThermoML archive (doi:10.1021/je100972k)
Values joined by “and” are separate entries in the source; they are usually repeats but may differ in a detail not shown here. Equal entries are not always repeated.

Settings: Crystal

[F-].[F-].[F-].[F-].[Zr+4] [zirconium(IV) fluoride]
Settings | vapor or sublimation pressure
685 K | 8.13e-06 kPa
689 K | 8.13e-06 kPa
690 K | 1.05e-05 kPa
693 K | 1.05e-05 kPa and 1.62e-05 kPa
698.5 K | 1.62e-05 kPa
699 K | 1.55e-05 kPa and 2.4e-05 kPa
704 K | 1.2e-05 kPa
705 K | 3.24e-05 kPa
706.5 K | 2.4e-05 kPa
707 K | 3.09e-05 kPa
709 K | 3.09e-05 kPa
709.5 K | 2.82e-05 kPa
711 K | 4.9e-05 kPa
711.5 K | 1.62e-05 kPa
712.5 K | 2.4e-05 kPa
713 K | 4.17e-05 kPa
713.5 K | 3.24e-05 kPa
715 K | 2.04e-05 kPa
717 K | 6.46e-05 kPa and 2.4e-05 kPa
719 K | 3.63e-05 kPa
720 K | 4.9e-05 kPa and 3.47e-05 kPa and 2.82e-05 kPa
720.5 K | 5.25e-05 kPa
721 K | 3.24e-05 kPa
723.5 K | 4.9e-05 kPa
724 K | 6.46e-05 kPa and 4.68e-05 kPa
724.5 K | 4.68e-05 kPa
725.5 K | 4.07e-05 kPa and 3.63e-05 kPa
726.5 K | 4.07e-05 kPa
728.5 K | 9.33e-05 kPa and 0.000112 kPa
729 K | 6.46e-05 kPa
729.5 K | 8.91e-05 kPa
730 K | 8.32e-05 kPa and 6.92e-05 kPa
731.5 K | 5.62e-05 kPa and 4.9e-05 kPa
732 K | 6.92e-05 kPa and 5.62e-05 kPa
734.5 K | 0.000112 kPa
735 K | 8.91e-05 kPa
735.5 K | 0.000162 kPa
736 K | 0.00012 kPa and 9.33e-05 kPa
737 K | 0.000117 kPa and 8.13e-05 kPa and 6.46e-05 kPa
737.5 K | 0.000145 kPa and 7.24e-05 kPa
739.5 K | 0.000135 kPa
740.5 K | 0.000155 kPa and 9.33e-05 kPa
741 K | 0.000112 kPa
742 K | 0.000219 kPa
743 K | 0.000141 kPa and 0.000105 kPa and 8.91e-05 kPa
743.5 K | 0.000162 kPa and 9.77e-05 kPa
746.5 K | 0.000224 kPa and 0.000209 kPa and 0.000204 kPa
748 K | 0.000162 kPa
748.5 K | 0.000282 kPa and 0.00012 kPa
749 K | 0.000151 kPa and 0.000129 kPa
750 K | 0.000145 kPa
750.5 K | 0.000209 kPa
751 K | 0.00024 kPa
751.5 K | 0.000251 kPa
753 K | 0.000209 kPa and 0.000158 kPa
754 K | 0.000324 kPa and 0.000209 kPa
754.5 K | 0.000372 kPa and 0.00017 kPa
755 K | 0.000178 kPa
756 K | 0.000288 kPa and 0.000417 kPa and 0.000302 kPa
756.5 K | 0.000302 kPa
757 K | 0.000302 kPa
757.5 K | 0.000251 kPa
758 K | 0.000195 kPa
759 K | 0.000257 kPa
760 K | 0.000234 kPa and 0.000219 kPa
760.5 K | 0.000363 kPa
763 K | 0.000513 kPa [middle of 4 runs]
764 K | 0.000234 kPa
765 K | 0.000347 kPa
765.5 K | 0.000302 kPa
766 K | 0.000468 kPa [middle of 5 runs]
766.5 K | 0.000457 kPa
769 K | 0.000741 kPa and 0.000437 kPa
770.5 K | 0.000447 kPa
771.5 K | 0.000363 kPa
772 K | 0.000537 kPa and 0.000407 kPa
773 K | 0.000417 kPa
774 K | 0.000891 kPa and 0.000427 kPa
775 K | 0.000646 kPa
777.5 K | 0.000603 kPa
778 K | 0.000525 kPa and 0.000501 kPa
779 K | 0.000724 kPa
781 K | 0.00055 kPa
783 K | 0.000646 kPa
783.5 K | 0.000933 kPa
784 K | 0.000813 kPa
785 K | 0.000646 kPa
786 K | 0.001 kPa
788 K | 0.00145 kPa
789 K | 0.000813 kPa
789.5 K | 0.00102 kPa
791 K | 0.000977 kPa
792 K | 0.00129 kPa
793 K | 0.00129 kPa
794 K | 0.00105 kPa
798 K | 0.00148 kPa and 0.00123 kPa and 0.00126 kPa
799 K | 0.00234 kPa
801 K | 0.00186 kPa and 0.0017 kPa
802 K | 0.00155 kPa
803 K | 0.00166 kPa
803.5 K | 0.00186 kPa
807 K | 0.00209 kPa
808 K | 0.00295 kPa
810.5 K | 0.0024 kPa
811 K | 0.00275 kPa and 0.00209 kPa
815 K | 0.00295 kPa
818 K | 0.00389 kPa
821 K | 0.0038 kPa
823 K | 0.00617 kPa
828 K | 0.00562 kPa
